Data set [1] in a line: Relative plasma concentration in mouse assessed as ratio of plasma concentration in mouse at 1 mg/kg, po to IC50 for NF-kappaB transrepression activity in A549 cells expressing MMTV reporter gene. The class given is ADME, organism-based. On the set-up: dose 1 mg/kg, route oral. Particulars: in vivo.
Data set [2] in a line: Relative fraction unbound in mouse assessed as ratio of fraction unbound in mouse at 1 mg/kg, po to IC50 for NF-kappaB transrepression activity in A549 cells expressing MMTV reporter gene. The format is ADME, organism-based. As to conditions: in vivo. On the set-up: dose 1 mg/kg, route oral.
Data set [3] concerns Mus musculus. The data set can be described thus: Inhibition of IL1-induced circulating IL6 release in mouse at 0.1 mg/kg, po. The class given is functional.
A short description of data set [4]: Plasma concentration in mouse bearing mouse NIH-3T3 cells integrated with MMTV reporter gene at 0.1 mg/kg, po after 1 hr. The class given is ADME, organism-based, NIH3T3. On the set-up: dose 0.1 mg/kg, route oral. A general note: Reporter assays use an easily measured gene product as a stand-in for the process of interest.
Data set [5] can be described thus: Relative plasma concentration in mouse assessed as ratio of plasma concentration in mouse at 0.01 mg/kg, po to IC50 for NF-kappaB transrepression activity in A549 cells expressing MMTV reporter gene. The format is ADME, organism-based. On the set-up: dose 0.01 mg/kg, route oral. Particulars: in vivo.
Data set [6] in a line: Antiinflammatory activity in human primary synovial fibroblasts assessed as inhibition of IL1-induced MMP1 release after 18 hrs by MSD technology. The class given is functional.
The subject of data set [7] is Hepatocyte. The data set can be described thus: Toxicity in human hepatocytes assessed as increase in PEPCK mRNA level after 18 hrs by PCR. The class given is cell-based.
A short description of data set [8]: Relative plasma concentration in mouse assessed as ratio of plasma concentration in mouse at 10 mg/kg, po to IC50 for NF-kappaB transrepression activity in A549 cells expressing MMTV reporter gene. The class given is ADME, organism-based. On the set-up: dose 10 mg/kg, route oral. As to conditions: in vivo.
Data set [9] concerns Mus musculus. The data set can be described thus: Inhibition of IL1-induced circulating IL6 release in mouse at 10 mg/kg, po. The format is functional.
Data set [10] is described as follows: Plasma concentration in mouse bearing mouse NIH-3T3 cells integrated with MMTV reporter gene at 1 mg/kg, po after 1 hr. The class given is ADME, organism-based, NIH3T3. The arrangement: dose 1 mg/kg, route oral.
Data set [11] is described as follows: Antiinflammatory activity in human primary synovial fibroblasts assessed as inhibition of IL1-induced IL8 release after 18 hrs by MSD technology. The format is functional.
The nature of data set [12]: Toxicity in human skeletal muscle cells assessed as increase in glutamine synthase mRNA level after 18 hrs by PCR.
A short description of data set [13]: Relative fraction unbound in mouse assessed as ratio of fraction unbound in mouse at 0.01 mg/kg, po to IC50 for NF-kappaB transrepression activity in A549 cells expressing MMTV reporter gene. The format is ADME, organism-based. On the set-up: dose 0.01 mg/kg, route oral. As to conditions: in vivo.
The subject of data set [14] is Mus musculus. The data set can be described thus: Inhibition of IL1-induced circulating IL6 release in mouse at 0.01 mg/kg, po. The class given is functional.
The nature of data set [15]: Antiinflammatory activity in human primary synovial fibroblasts assessed as inhibition of IL1-induced IL6 release after 18 hrs by MSD technology. The format is functional.
The nature of data set [16]: Relative fraction unbound in mouse assessed as ratio of fraction unbound in mouse at 0.1 mg/kg, po to IC50 for NF-kappaB transrepression activity in A549 cells expressing MMTV reporter gene. The format is ADME, organism-based. On the set-up: dose 0.1 mg/kg, route oral. Particulars: in vivo.
Data set [17] in a line: Relative fraction unbound in mouse assessed as ratio of fraction unbound in mouse at 10 mg/kg, po to IC50 for NF-kappaB transrepression activity in A549 cells expressing MMTV reporter gene. The arrangement: dose 10 mg/kg, route oral. The class given is ADME, organism-based. Particulars: in vivo.
Data set [18] can be described thus: Plasma concentration in mouse bearing mouse NIH-3T3 cells integrated with MMTV reporter gene at 0.01 mg/kg, po after 1 hr. The format is ADME, organism-based, NIH3T3. On the set-up: dose 0.01 mg/kg, route oral.
Data set [19] in a line: Plasma concentration in mouse bearing mouse NIH-3T3 cells integrated with MMTV reporter gene at 10 mg/kg, po after 1 hr. The class given is ADME, organism-based, NIH3T3. On the set-up: dose 10 mg/kg, route oral.
Data set [20] is described as follows: Relative plasma concentration in mouse assessed as ratio of plasma concentration in mouse at 0.1 mg/kg, po to IC50 for NF-kappaB transrepression activity in A549 cells expressing MMTV reporter gene. The format is ADME, organism-based. On the set-up: dose 0.1 mg/kg, route oral. As to conditions: in vivo.
In data set [21] the test system is Mus musculus. As to the kind of experiment: Inhibition of IL1-induced circulating IL6 release in mouse at 1 mg/kg, po. The class given is functional.

Take `C[C@@H]1C[C@H]2[C@@H]3CCC4=CC(=O)C=C[C@]4(C)[C@@]3(F)[C@@H](O)C[C@]2(C)[C@@]1(O)C(=O)CO` [DEXAMETHASONE]: the “fold change (FC)” value in data set [1] turned out to be 300; in data set [2], 86; in [5] it was 7; in data set [8], 2944; in data set [13], 0.4; in data set [16], 8. Moreover, the “fold change (FC)” value in data set [17] was 870; in data set [20], 40. Further, the inhibition in vivo (as a rule, the drop in the measured response relative to a control, in per cent) at 0.1 mg/kg in data set [3] came to 67%. The concentration at 1 h in data set [4] amounted to 236 nM; in data set [10] it was 1800 nM; in [18], 44 nM; in data set [19], 17700 nM. The IC50 – broadly, the concentration at which inhibition is half-maximal – in data set [6] is 0.316 nM; in data set [11], 0.501 nM; in data set [15], 0.631 nM. Further, the Activity result in data set [7] and in [12] was “Toxic” each time. This molecule showed an inhibition in vivo at 10 mg/kg in [9] of 83%. Further, the inhibition in vivo at 0.01 mg/kg in data set [14] was found to be 24%. In addition, testing at 1 mg/kg in data set [21] gave an inhibition in vivo of 88%.
